23 compounds from ChEMBL document CHEMBL5260820, “Discovery of novel steroidal histamine H3 receptor antagonists/inverse agonists” (Bioorg Med Chem Lett, 2017) can be followed below.

The target in assay [1] is T1, Histamine H3 receptor (Homo sapiens, UniProt Q9Y5N1). The assay is described as follows: Antagonist activity at human histamine H3 receptor expressed in CHO-K1 cells assessed as inhibition of imetit-stimulation ERK1/2 phosphorylation by ELISA analysis. Format: cell-based. On the technique in general: An ELISA detects its analyte on a solid surface through an enzyme-linked reagent.
T1 sequence (Q9Y5N1 whole entry): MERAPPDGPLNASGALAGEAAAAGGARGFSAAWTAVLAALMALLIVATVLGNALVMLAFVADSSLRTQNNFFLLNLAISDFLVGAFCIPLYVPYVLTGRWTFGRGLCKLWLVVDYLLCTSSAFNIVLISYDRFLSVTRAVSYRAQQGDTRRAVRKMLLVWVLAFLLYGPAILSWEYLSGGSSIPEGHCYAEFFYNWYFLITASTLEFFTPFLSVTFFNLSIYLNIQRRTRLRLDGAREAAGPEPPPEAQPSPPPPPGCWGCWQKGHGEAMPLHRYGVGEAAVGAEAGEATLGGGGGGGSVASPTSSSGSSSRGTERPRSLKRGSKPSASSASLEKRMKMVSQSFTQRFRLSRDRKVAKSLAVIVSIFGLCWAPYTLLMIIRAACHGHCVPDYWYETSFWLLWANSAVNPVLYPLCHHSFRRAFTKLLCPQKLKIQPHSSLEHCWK

Assay [2] addresses T1, Histamine H3 receptor. The assay is described as follows: Inverse agonist activity at recombinant human histamine H3 receptor expressed in CHO-K1 cells preincubated for 10 mins followed by [35S]GTPgammaS addition and measured after 60 mins by TopCount NXT based scintillation analysis. Format: cell-based.
For assay [3], the species on record is Rattus norvegicus. The assay is described as follows: Displacement of [3H]quinuclidinyl benzilate from Wistar rat cortex muscarinic AChR at 1 uM by liquid scintillation counting analysis relative to control. Format: tissue-based. Background: Loss of bound radioactivity is the signal in a displacement assay; it reports binding, not function.
The target of assay [4] is T1, Histamine H3 receptor. As to the kind of experiment: Displacement of N-alpha-[methyl-3H]-methylhistamine dihydrochloride from recombinant human histamine H3 receptor expressed in CHO-K1 cells assessed as inhibition constant incubated for 30 mins by liquid scintillation analysis. Format: cell-based.
The target in assay [5] is Histamine H3 receptor (Rattus norvegicus, UniProt Q9QYN8). As to the kind of experiment: Displacement of N-alpha-[methyl-3H]-methylhistamine dihydrochloride from Sprague-Dawley rat brain membrane histamine H3 receptor assessed as inhibition constant incubated for 30 mins by liquid scintillation counting analysis. Format: cell membranes.
Sequence of Histamine H3 receptor (Rattus norvegicus, UniProt Q9QYN8) (Q9QYN8 whole entry): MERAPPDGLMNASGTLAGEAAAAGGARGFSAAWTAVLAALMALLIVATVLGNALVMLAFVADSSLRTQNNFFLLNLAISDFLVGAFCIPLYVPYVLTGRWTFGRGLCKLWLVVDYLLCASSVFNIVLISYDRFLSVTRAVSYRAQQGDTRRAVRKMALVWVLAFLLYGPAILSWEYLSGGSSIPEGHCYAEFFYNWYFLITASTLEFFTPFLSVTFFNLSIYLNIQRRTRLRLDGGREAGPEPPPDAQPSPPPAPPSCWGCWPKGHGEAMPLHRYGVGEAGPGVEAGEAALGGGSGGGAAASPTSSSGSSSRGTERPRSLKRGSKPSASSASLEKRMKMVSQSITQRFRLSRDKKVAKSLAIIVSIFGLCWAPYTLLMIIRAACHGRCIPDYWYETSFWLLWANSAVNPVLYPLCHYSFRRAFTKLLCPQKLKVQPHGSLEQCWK
The species named for assay [6] is Rattus norvegicus. The assay is described as follows: Displacement of [3H]quinuclidinyl benzilate from Wistar rat cortex muscarinic AChR at 3 uM by liquid scintillation counting analysis relative to control. Format: tissue-based.
Assay [7] can be described thus: Displacement of [3H]quinuclidinyl benzilate from Wistar rat cortex muscarinic AChR assessed as inhibition constant by liquid scintillation counting analysis. Format: tissue-based.
In assay [8] the target is T1, Histamine H3 receptor. The assay is described as follows: Inverse agonist activity at recombinant human histamine H3 receptor expressed in CHO-K1 cells assessed as maximal efficacy preincubated for 10 mins followed by [35S]GTPgammaS addition and measured after 60 mins by TopCount NXT based scintillation analysis relative to control. Format: cell-based. Conditions: filed as inverse agonist, time 70.0 min. Background: GTPγS is a poorly hydrolysed GTP analogue; its binding reports G protein activation.

The target of assay [9] is Estrogen receptor beta (Homo sapiens) (UniProt Q92731). The assay is described as follows: Binding affinity to Estrogen receptor beta (unknown origin) at 1 uM by displacement assay relative to control.
Sequence of Estrogen receptor beta (Homo sapiens) (Q92731 whole entry): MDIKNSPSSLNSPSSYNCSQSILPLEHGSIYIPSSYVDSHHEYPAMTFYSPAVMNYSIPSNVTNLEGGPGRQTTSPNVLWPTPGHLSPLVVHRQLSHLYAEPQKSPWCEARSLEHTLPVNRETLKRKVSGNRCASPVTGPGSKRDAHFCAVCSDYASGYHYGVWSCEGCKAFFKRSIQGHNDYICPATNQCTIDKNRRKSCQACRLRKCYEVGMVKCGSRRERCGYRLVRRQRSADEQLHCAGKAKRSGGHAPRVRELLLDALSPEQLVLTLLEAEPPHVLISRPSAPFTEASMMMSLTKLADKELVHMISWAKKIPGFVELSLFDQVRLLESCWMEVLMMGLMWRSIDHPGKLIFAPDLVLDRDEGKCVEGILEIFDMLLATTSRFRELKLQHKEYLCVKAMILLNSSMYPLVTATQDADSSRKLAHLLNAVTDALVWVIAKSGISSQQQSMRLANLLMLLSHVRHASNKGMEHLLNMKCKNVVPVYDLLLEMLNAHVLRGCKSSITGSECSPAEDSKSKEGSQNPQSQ
The target of assay [10] is T2, Estrogen receptor (Homo sapiens) (UniProt P03372).
T2 sequence (whole entry): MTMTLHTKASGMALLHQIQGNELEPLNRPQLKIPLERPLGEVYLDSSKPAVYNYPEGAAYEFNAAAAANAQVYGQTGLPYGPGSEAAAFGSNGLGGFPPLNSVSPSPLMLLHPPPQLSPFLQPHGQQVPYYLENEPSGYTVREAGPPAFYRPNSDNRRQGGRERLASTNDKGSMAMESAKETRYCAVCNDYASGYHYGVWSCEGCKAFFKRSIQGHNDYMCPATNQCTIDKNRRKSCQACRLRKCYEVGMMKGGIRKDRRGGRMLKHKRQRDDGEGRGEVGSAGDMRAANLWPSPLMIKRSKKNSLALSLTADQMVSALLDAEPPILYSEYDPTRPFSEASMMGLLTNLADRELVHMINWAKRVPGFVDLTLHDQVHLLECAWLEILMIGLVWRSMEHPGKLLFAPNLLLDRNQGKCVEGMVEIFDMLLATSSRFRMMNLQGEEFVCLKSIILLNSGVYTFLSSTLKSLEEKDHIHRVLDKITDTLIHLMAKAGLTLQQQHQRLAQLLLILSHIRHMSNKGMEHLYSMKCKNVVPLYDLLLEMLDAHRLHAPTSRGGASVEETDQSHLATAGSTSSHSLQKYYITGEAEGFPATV
The assay is described as follows: Binding affinity to Estrogen receptor alpha (unknown origin) at 1 uM by displacement assay relative to control.

For assay [11], the target named is Histamine H4 receptor (Homo sapiens) (UniProt Q9H3N8). The assay is described as follows: Displacement of [3H]histamine from human histamine H4 receptors expressed in CHO-K1 cell membrane at 1 uM incubated for 30 mins by scintillation counter analysis relative to control. Format: cell membranes.
Sequence of Histamine H4 receptor (Homo sapiens) (Q9H3N8 whole entry): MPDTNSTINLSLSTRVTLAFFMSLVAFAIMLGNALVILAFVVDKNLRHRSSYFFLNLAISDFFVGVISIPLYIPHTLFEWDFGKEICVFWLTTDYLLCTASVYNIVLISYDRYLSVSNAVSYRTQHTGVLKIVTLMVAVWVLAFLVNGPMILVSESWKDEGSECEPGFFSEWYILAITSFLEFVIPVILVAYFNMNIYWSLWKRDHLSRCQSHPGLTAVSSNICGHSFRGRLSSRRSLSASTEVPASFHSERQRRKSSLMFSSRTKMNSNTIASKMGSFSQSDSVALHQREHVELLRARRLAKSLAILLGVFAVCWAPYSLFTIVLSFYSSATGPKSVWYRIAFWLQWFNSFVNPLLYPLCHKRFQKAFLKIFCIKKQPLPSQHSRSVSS
For assay [12], the target named is Histamine H2 receptor (Homo sapiens) (UniProt P25021). The assay is described as follows: Displacement of [3H]tiotidine from recombinant human histamine H2 receptor expressed in CHO-K1 cell membrane at 1 uM incubated for 45 mins by Scintillation counter analysis relative to control. Format: cell membranes.
Sequence of Histamine H2 receptor (Homo sapiens) (P25021 whole entry): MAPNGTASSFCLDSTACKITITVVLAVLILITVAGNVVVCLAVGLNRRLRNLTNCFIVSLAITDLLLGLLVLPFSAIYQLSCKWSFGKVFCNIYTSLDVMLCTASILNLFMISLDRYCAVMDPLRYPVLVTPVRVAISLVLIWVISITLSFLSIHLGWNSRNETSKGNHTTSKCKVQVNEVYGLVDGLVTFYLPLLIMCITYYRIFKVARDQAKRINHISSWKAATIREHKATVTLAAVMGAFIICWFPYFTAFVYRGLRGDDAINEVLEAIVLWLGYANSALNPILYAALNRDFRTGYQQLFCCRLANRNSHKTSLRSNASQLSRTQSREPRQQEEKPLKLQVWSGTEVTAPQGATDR
The target of assay [13] is Histamine H1 receptor (Homo sapiens) (UniProt P35367). As to the kind of experiment: Displacement of [3H]pyrilamine from recombinant human histamine H1 receptor expressed in CHO-K1 cell membrane at 1 uM incubated for 30 mins by liquid scintillation counter analysis relative to control. Format: cell membranes.
Sequence of Histamine H1 receptor (Homo sapiens) (P35367 whole entry): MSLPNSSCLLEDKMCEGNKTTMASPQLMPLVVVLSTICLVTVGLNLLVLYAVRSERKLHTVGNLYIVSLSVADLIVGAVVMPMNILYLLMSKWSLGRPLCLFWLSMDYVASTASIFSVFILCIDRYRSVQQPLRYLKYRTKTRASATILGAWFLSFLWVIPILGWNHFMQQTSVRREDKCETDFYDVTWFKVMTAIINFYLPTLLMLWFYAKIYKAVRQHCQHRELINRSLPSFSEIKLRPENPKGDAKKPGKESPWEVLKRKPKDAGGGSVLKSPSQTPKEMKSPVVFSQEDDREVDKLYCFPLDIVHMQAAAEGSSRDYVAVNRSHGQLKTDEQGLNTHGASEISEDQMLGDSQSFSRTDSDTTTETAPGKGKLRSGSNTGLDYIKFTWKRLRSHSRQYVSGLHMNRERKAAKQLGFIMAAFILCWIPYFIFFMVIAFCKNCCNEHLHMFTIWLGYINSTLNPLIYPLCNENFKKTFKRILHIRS
In assay [14] the target is Histamine H3 receptor (Rattus norvegicus) (UniProt Q9QYN8). As to the kind of experiment: Displacement of N-alpha-[methyl-3H]-methylhistamine dihydrochloride from Sprague-Dawley rat brain membrane histamine H3 receptor at 300 nM incubated for 30 mins by liquid scintillation counting analysis relative to control. Format: cell membranes.
Sequence of Histamine H3 receptor (Rattus norvegicus) (Q9QYN8 whole entry): as the sequence (Q9QYN8 whole entry) above
Assay [15] in a line: Selectivity index, ratio of Ki for displacement of [3H]quinuclidinyl benzilate from Wistar rat cortex muscarinic AChR to Ki for N-alpha-[methyl-3H]-methylhistamine dihydrochloride from Sprague-Dawley rat brain membrane histamine H3 receptor.

SMILES strings stand for the structures.

As for `C[C@@]12CC[C@@H]3c4ccc(OCCCN5CCCC5)cc4CC[C@H]3[C@@H]1CCC2N1CCCC1` (some centres undefined), the IC50 (in general, the midpoint of a concentration-inhibition curve) in assay [1] was found to be 16 nM. Also, the EC50 (usually the concentration giving half of the maximal effect) in assay [2] is 0.8 nM. In assay [3], this compound showed an Activity of 71%. The values for the inhibition constant (Ki) in assay [4] and in assay [5] were 1.4 nM and 6.1 nM, respectively.
On the same counts, the results for `C[C@@H]1Cc2cc(OCCCN3CCCC3)ccc2[C@H]2CC[C@]3(C)[C@@H](N4CCCC4)CC[C@H]3[C@H]12` are 12 nM, 0.2 nM, 72%, 1.2 nM and 18.3 nM.
The corresponding values for `C[C@]12CC[C@@H]3c4ccc(OCCCN5CCC(C(N)=O)CC5)cc4CC[C@H]3[C@@H]1CC[C@@H]2N1CCCC1` are 3 nM, 3.9 nM, 37%, 7 nM and 3.1 nM.
For `CC[C@]12CC[C@@H]3c4ccc(OCCCN5CCCC5)cc4CC[C@H]3[C@@H]1CC[C@@H]2N1CCCC1`, the half-inhibitory concentration (IC50) in assay [1] amounted to 16 nM. Besides, in assay [2], the EC50 amounted to 0.9 nM. This compound returned an Activity in assay [3] of 69%. The figures for the inhibition constant (Ki) in assay [4] and in assay [5] were 0.8 nM and 16.6 nM, respectively.
For the compound `C[C@]12CC[C@@H]3c4ccc(OCc5ccc(Cl)cn5)cc4CC[C@H]3[C@@H]1CC[C@@H]2N1CCCC1`, in assay [6], the Activity worked out at 66%. Besides, the Ki (usually the dissociation constant of the complex between target and ligand, obtained from inhibition or displacement) was 705 nM in assay [7], 1.6 nM in [4] and 49 nM in [5].
Turning to `Clc1ccc(CCCOCCCN2CCCCC2)cc1` [PITOLISANT], in [8], the maximum response (Emax) (as a rule, the maximal effect, on the per cent scale that the assay sets) came to 55%. Further, the inhibition constant (Ki) in assay [7] was 19 nM.
`C[C@]12CC[C@@H]3c4ccc(OCCCN5CCCC5)cc4CC[C@H]3[C@@H]1CC[C@@H]2N1CCCC1`: the concentration for half-maximal inhibition (IC50) in assay [1] came to 6.1 nM. For the same compound, in assay [2], the EC50 amounted to 0.1 nM. In addition, the Activity in assay [9] amounted to 26%; in [10], 19%; in assay [11] it was 36%; in assay [12] it was 44%; in [13], 64%; in [3] it was 74%. The figures for the inhibition constant Ki in assay [7], in assay [4] and in assay [5] were 110 nM, 0.6 nM and 2.4 nM, respectively.
With `C[C@H]1[C@H]2CC[C@H]3[C@@H]4CC=C5C[C@@H](N(C)C)CC[C@]5(C)[C@H]4CC[C@]23CN1C`, the Activity in assay [3] is 84%; in assay [14], 34%.
With `C[C@]12CC[C@@H]3c4ccc(OCCCN5CCC(O)C5)cc4CC[C@H]3[C@@H]1CC[C@@H]2N1CCCC1` (some centres undefined), the IC50 in assay [1] amounted to 3.9 nM. Also, the EC50 in assay [2] worked out at 1.2 nM. This compound also displayed an Activity in [3] of 64%. Also, the Ki is 5.2 nM in assay [4] and 16.8 nM in [5].
As to `C[C@]12CC[C@@H]3c4ccc(OCc5ccncc5)cc4CC[C@H]3[C@@H]1CC[C@@H]2N1CCCC1`, the Activity in assay [3] is 51%. The Ki in assay [4] is 0.87 nM; in assay [5], 7.3 nM.
On to `C[C@]12CC[C@H]3[C@@H](CC=C4C[C@@H](OCCCN5CCCC5)CC[C@@]43C)[C@@H]1CC[C@@H]2N1CCCC1`, for which, in [6], the Activity was 92%. The Ki in assay [4] amounted to 4.3 nM; in assay [5], 10.2 nM.
Consider `S=C(NC1CCCCC1)N1CCC(c2cnc[nH]2)CC1` [THIOPERAMIDE], for which the Emax in assay [8] is 50%. Besides, the Ki in assay [5] was determined as 23 nM.
As to `CC(=O)C1CCN(CCCOc2ccc3c(c2)CC[C@@H]2[C@@H]3CC[C@]3(C)[C@@H](N4CCCC4)CC[C@@H]23)CC1`, the IC50 in assay [1] came out at 14.2 nM. Also, the EC50 in assay [2] amounted to 1.4 nM. For the same compound, the inhibition constant (Ki) in assay [4] stood at 2.7 nM; in [5], 7.5 nM.
In the case of `C[C@]12CC[C@@H]3c4ccc(OCCCN5CCC(O)CC5)cc4CC[C@H]3[C@@H]1CC[C@@H]2N1CCCC1`, the 50% inhibitory concentration (IC50) in [1] amounted to 4.2 nM. Moreover, the EC50 in [2] stood at 4.4 nM. In [3], this compound registered an Activity of 55%. In addition, the Ki in assay [4] came out at 5 nM; in assay [5], 24.3 nM.
Take `CC1CCCN1CCCOc1ccc2c(c1)CC[C@@H]1[C@@H]2CC[C@]2(C)[C@@H](N3CCCC3)CC[C@@H]12` (mixture of isomers): in [15], the Ratio Ki was 62. Further, the IC50 in assay [1] was 12.1 nM. In addition, in [2], the EC50 came to 0.4 nM. Also, the Activity in assay [3] was 69%. Besides, the inhibition constant (Ki) in [7] stood at 224 nM; in assay [4] it was 0.5 nM; in [5], 3.6 nM.
As to `C[C@]12CC[C@@H]3c4ccc(OCc5ccccc5)cc4CC[C@H]3[C@@H]1CC[C@@H]2N1CCCC1`, the Activity in assay [3] was determined as 5%. Also, the inhibition constant Ki in assay [4] amounted to 216 nM.
`C[C@]12CC[C@@H]3c4ccc(OCCCCN5CCCC5)cc4CC[C@H]3[C@@H]1CC[C@@H]2N1CCCC1`: the IC50 in assay [1] amounted to 7.5 nM. Further, the concentration giving a half-maximal response (EC50) in assay [2] is 0.7 nM. Besides, the Activity in [3] is 73%. In addition, the Ki worked out at 0.8 nM in assay [4] and 24.8 nM in assay [5].
On the same counts, the results for `C[C@]12CC[C@@H]3c4ccc(OCCCN5CCNC(=O)C5)cc4CC[C@H]3[C@@H]1CC[C@@H]2N1CCCC1` are 17.4 nM, 0.6 nM, 73%, 0.6 nM and 3.2 nM.
For `C[C@]12CC[C@@H]3c4ccc(OCCN5CCCC5)cc4CC[C@H]3[C@@H]1CC[C@@H]2N1CCCC1`, in assay [1], the IC50 turned out to be 29 nM. The EC50 in assay [2] is 0.3 nM. The compound further came in with an Activity in [3] of 69%. The inhibition constant (Ki) in assay [4] is 1.9 nM; in assay [5] it was 23.1 nM.
`C[C@]12CC[C@@H]3c4ccc(OCc5cccnc5)cc4CC[C@H]3[C@@H]1CC[C@@H]2N1CCCC1` yielded an Activity in [6] of 57%. The inhibitory constant (Ki) came out at 797 nM in [7], 3 nM in [4] and 19 nM in [5].
Consider `CN1CCC[C@H]2[C@@H]3CC[C@H]4C[C@@H](OC(=O)CCN5CCCC5)CC[C@]4(C)[C@H]3CC[C@@]21C`, for which the Activity in assay [3] stood at 44%. For the same compound, the Ki in [4] was 10 nM; in [5], 39 nM.
For `C[C@]12CC[C@@H]3c4ccc(OCCCN5CCCCCC5)cc4CC[C@H]3[C@@H]1CC[C@@H]2N1CCCC1`, the half-inhibitory concentration (IC50) in assay [1] came out at 17.5 nM. In addition, the concentration for a half-maximal effect (EC50) in assay [2] amounted to 0.6 nM. Also, in assay [3], the Activity was found to be 77%. Besides, the figures for the Ki in assay [4] and in assay [5] were 0.6 nM and 2.1 nM, respectively.
Take `C[C@H]1CCCN1CCCOc1ccc2c(c1)CC[C@@H]1[C@@H]2CC[C@]2(C)[C@@H](N3CCCC3)CC[C@@H]12`: the Ratio Ki in [15] amounted to 22. For the same compound, in assay [1], the half-maximal inhibitory concentration (IC50) was found to be 11.6 nM. Further, the concentration giving a half-maximal response (EC50) in assay [2] is 0.6 nM. In [3], this compound yielded an Activity of 76%. The figures for the inhibition constant (Ki) in [7], in assay [4] and in assay [5] were 122 nM, 0.3 nM and 5.6 nM, respectively.
